Results from patent EP3741379A1, “COSMETIC COMPOSITION COMPRISING AZADIRACHTA INDICA LEAF EXTRACT” (HONEST CO.,LTD., priority 2019, dated 2020).

Experiments:
[1] = Hyaluronic acid + iron 10 ppm; sample at 0.2%
Excerpt: When hyaluronic acid is degraded by heavy metals, the viscosity of the solution decreases, so the lower the viscosity, the greater the degradation of hyaluronic acid.

TRP-1 mRNA = TRP-1 mRNA expression through real-time PCR in α-MSH-treated B16F10; assay type: cell-based, mouse; details: at 100 µg/mL
Experimental: As cell lines, RAW 264.7, B16F10 and HacaT cells were aliquoted at 3 x 10^5 cells/well to a 6-well plate and cultured in a 5% CO2 incubator at 37°C for 24 hr. Then, the culture medium was replaced with serum-free DMEM, after which, in order to induce cell inflammation, whitening and wrinkle reduction, RAW 264.7 and B16F10 were treated with lipopolysaccharide (LPS) and alpha-melanocyte-stimulating hormone (α-MSH), respectively, at 1 ppm/well, and the cells were treated with each sample solution at different concentrations and then cultured in a 5% CO2 incubator at 37°C for 24 hr. As for HacaT cells, all experimental groups except the untreated group were washed once with PBS, added with PBS, and irradiated with UV-B (300 mJ/cm^2). After irradiation, the cells were treated with the sample solution at different concentrations and cultured for 24 hr to 48 hr. […] Thereafter, RNA was quantified using absorbance, and cDNA was then synthesized using a TProfessional basic thermocycler instrument. Thereafter, 40 PCR cycles of 95°C for 10 sec, 60°C for 15 sec, and 72°C for 20 sec were performed using Power SYBR Green PCR Master Mix reagents, primers and cDNA and using a Step One real-time PCR system, and quantitative analysis was conducted using an analysis program.
The inhibition rate of TRP-1 mRNA expression by AIE was determined through real-time PCR.

Structure (SMILES)	Viscosity [1]	inhibition of TRP-1 mRNA expression (TRP-1 mRNA)
O=C([O-])CN(CCN(CC(=O)O)CC(=O)O)CC(=O)[O-].[Na+].[Na+] [EDTA-2Na]	7,800 cp	
OC[C@H]1O[C@@H](Oc2ccc(O)cc2)[C@H](O)[C@@H](O)[C@@H]1O [arbutin]		14.86%
